The values that follow come from patent publication US11939324B2, “Compounds for the treatment of epilepsy, neurodegenerative disorders and other CNS disorders” (reMYND N.V., priority 2017, dated 2024).

Assay [1] relates to M17-TAU P301L cells. The assay is described as follows: Cytosolic calcium (Fura-2) in M17-TAU P301L cell model of calcium dyshomeostasis. The class given is cell-based. To be noted: Homo sapiens, Fura-2 340/380 nm ratio, read-out: EC50 value of lowering cytosolic Ca^2+. As for the experimental part:
Cystosic calcium was measured by loading the cells with a medium containing Fura-2 AM (Sigma-Aldrich), a cell permeable fluorescent probe for Ca^2+. Fura-2-AM was dissolved in DMSO plus 20% Pluronic Acid (F-127) (Invitrogen) in a 1:1 ratio and diluted in medium to a final concentration of 0.5 μM. To this loading medium probenecid (Sigma-Aldrich) was added to a final concentration of 2.5 mM. Then, culture medium was replaced by loading medium and after incubation for 1 hour at 37° C. cells were washed twice and replaced with HBSS (Gibco) supplemented with 0.2% FBS and 0.02M HEPES. Next, changes in cytosolic calcium were measured using a FlexStation 3 microplate reader (Molecular Devices) and quantified ratiometric, by calculating changes in the amount of cytosolic Ca^2+ bound Fura-2 (fluorescence intensity at 340 nm) relative to the amount of Ca^2+ unbound Fura-2 (fluorescence intensity at 380 nm). Data was processed in SoftMax Pro 5.4.6 software (Molecular Devices).
In addition compounds were tested to lower the elevated cytosolic calcium levels. In the presence of the compounds these cytosolic calcium levels were decreased.
Compounds were tested to lower the elevated cytosolic Ca^2+ levels in the cell model of calcium dyshomeostasis (FIG. 1B) as described in example 10.
Exemplary compounds of the present invention are shown in Table 2, with their chemical structure and their EC50 value of lowering cytosolic Ca^2+ (expressed in μg/ml).

The next assay has as its system VGCC. The assay is described as follows: Ex-vivo inhibition of VGCC activity: KCl-induced Ca2+ influx in primary neurons (Fura2). It is filed as cell-based. The note with it: 1.5 μm compound, 45 mM KCl, primary neurons from mouse embryos, FIG. 5, p<0.0001. As for the experimental part: Compound 6 was tested for its ability to inhibit VGCC activity in primary neurons. Neurons from mouse embryos were harvested and cultured using standard methods (such as used in Schlager et al., 2014. Cell reports, 8(5), pp. 1248-56). To stimulate VGCC activity, neurons were depolarized using 45 mM KCl and incubated with vehicle or compound at a concentration of 1.5 μm. Calcium influx was measured using fluorescent cytosolic Ca^2+ detection reagent Fura2.
Changes in cytosolic Ca^2+ concentrations were measured after loading the cells with Fura-2 AM (Sigma-Aldrich), a cell permeable fluorescent probe for Ca^2+. Briefly, Fura-2-AM was dissolved in DMSO plus 20% Pluronic Acid (F-127) (Invitrogen) in a 1:1 ratio and diluted in medium to a final concentration of 0.5 μM. […] Next, changes in cytosolic calcium were measured using a FlexStation 3 microplate reader (Molecular Devices) and quantified ratiometric, by calculating changes in the amount of cytosolic Ca^2+ bound Fura-2 (fluorescence intensity at 340 nm) relative to the amount of Ca^2+ unbound Fura-2 (fluorescence intensity at 380 nm). […]
Compounds were tested at […] for their ability to inhibit Ca^2+ influx in primary neurons (FIG. 5) as described in Example 14. […] The percentage (%) inhibition of Ca^2+ influx relative to vehicle treated neurons was calculated.

The subject of assay [2] is M17-TAU P301L cells. The assay is described as follows: TAU-induced toxicity: LDH leakage of retinoic acid incubated M17-TAU P301L cells. It is filed as cell-based, human. To be noted: Homo sapiens; reduction of LDH activity of retinoic acid incubated M17-TAU P301L cells; read-out: EC50 (μg/ml) TAU-induced toxicity. From the text:
A TAU expression plasmid was constructed by sub-cloning the cDNA of human TAU-P301L (encoding for TAU with proline 301 substituted by a leucine residue) into mammalian expression vector pcDNA3.1 resulting in plasmid pcDNA3.1-TAU P301L. Plasmids pcDNA3.1 and pcDNA3.1-TAU P301L were transfected to human neuroblastoma cells ([…]; ATCC No. CRL-2267) and independent clonal lines with the plasmids stably integrated into the genome were selected. […] Expression of the TAU P301L genes in the cell lines was confirmed by Western analysis.
In degenerated or dead cells lactate dehydrogenase (LDH) leaks out of the cells into the extracellular environment due to a loss of plasma-membrane integrity. This principle was used to determine cytotoxicity by quantifying the level of leaked LDH into the growth medium relative to the sum of total LDH activity from living cells and dead cells.
The detailed method for determining cytotoxicity was as follows: From appropriate precultures of M17-3.1 and M17-TAU(P301L) cells were seeded at 2500 cells/cm2 in Optimem Reduced Serum without phenol red (Gibco, Cat. 31985-047) supplemented with 1% fetal calf serum, 1 mM sodium pyruvate, 1× non-essential amino acids, 500 μg/ml G418 0.5× antibiotic/antimycotic. After 3 hours of incubation at 37° C./5% CO2 1 volume of Optimem Reduced Serum (same as described above; except without fetal calf serum) supplemented with 2.5 μM all-trans retinoic acid (ATRA) was added. The cells were further incubated for 7 days. Subsequently, LDH activity was determined using Promega Cytotox 96 Non-Radioactive cytotoxicity assay, (Cat. G1780) according the supplier's instructions.
The M17-TAU P301L cell line made it possible to assess the ability of novel compounds to counteract TAU cytotoxicity. […] These measurements were used to calculate EC50 values.
Exemplary compounds of the present invention are shown in Table 1, with their chemical structure and their EC50 value (expressed in μg/ml) as determined from example 12 in the TAU-induced toxicity experiment.

≈ marks a conversion by molar mass, not a printed value.

`O=C(NCCc1c[nH]c2ccc(F)cc12)c1cc(Cc2cc(F)ccc2F)on1` [Compound 6]: the figures for the EC50 in the assay with M17-TAU P301L cells [1] and in the assay with M17-TAU P301L cells [2] were 2.4 ng/mL and 0.0034 µg/mL (≈ 8.51 nM), respectively. Besides, in the assay with VGCC, the “Ca^2+ influx upon KCl depolarization” value was “significantly reduced”.
